Data set [1] relates to mice. Briefly: Intravenous toxicity in mice (LD50). In kind it is in vivo. The source says: (§1) As indicated above, the new non-ionic compounds according to the invention have shown markedly low levels of toxicity, especially in intracerebral tests. […] It will be seen that all the new compounds listed are very much better than the known compounds in the intracerebral test.
(§2) Intravenous and Intracerebral Toxicity
(§3) Most of the compounds were so inert that it was not physically possible to inject sufficient substance to kill 50% of the mice and in such cases only a minimum value can be given for the LD50.

Data set [2] has as its system mice. Briefly: Intracerebral toxicity in mice (LD50). The class given is in vivo.
Text: as §1, §2, §3

Another data set in a line: Solubility in water. In kind it is physicochemical. The settings on record: for solubility: water.
The mark [3] stands for this setting: concentration administered 280 mgI/ml, N-methylglucamine salt.
Where [4] appears, read: known compounds, dose 0.05 ml/20 g mouse, concentration not given.
Setting [5] is: room temperature, read-out: Solubility in water at room temperature (class).
Setting [6] is: 400 mgI/ml, dose 0.05 ml/20 g mouse.
The mark [7] stands for this setting: concentration administered 300 mgI/ml.
[8] abbreviates: 300 mgI/ml, dose 0.10 ml/20 g mouse.
Setting [9] is: room temperature, figure in parentheses, read-out: Solubility in water at room temperature.

SMILES strings stand for the structures. Values after ≈ are worked out from the molar mass of the structure shown. Like-named read-outs stand apart in the source and are kept apart here.

A word on the solubility: it is the dissolved amount per volume that the medium holds.

As for `CNC(=O)c1c(I)c(NC(C)=O)c(I)c(C(=O)O)c1I` [5-Acetamido-2,4,6-triiodo-N-methylisophthalamic acid, reference compound], the “Intravenous LD50” value in the data set with mice [1] (setting [3]) was 6000 mgI/kg. For the same compound, the “Intracerebral LD50” value with mice [2] (setting [4]) stood at 210 mgI/kg.
As for `CC(=O)N(C)c1c(I)cc(I)c(C(=O)NC[C@H](O)[C@@H](O)[C@H](O)[C@H](O)CO)c1I` [Compound 1, N-(3-N-methylacetamido-2,4,6-triiodobenzoyl)-glucamine], the solubility in the data set “Solubility in water” (setting [5]) was greater than 500 mg/mL.
For `CC(=O)N(C)c1c(I)c(C(=O)N(C)CC(O)CO)c(I)c(N(CCO)C(C)=O)c1I` (stereo not drawn) [Compound 4, N-[3-N-(β-hydroxyethyl)-acetamido-5-N-methylacetamido-2,4,6-triiodobenzoyl]-N-methyl-2,3-dihydroxypropylamine], in the data set with mice [2] (setting [6]), the “Intracerebral LD50” value is listed as greater than 1000 mgI/kg. The solubility in “Solubility in water” (setting [5]) is greater than 500 mg/mL.
On to `CC(=O)N(CCO)c1c(I)c(C(=O)N(CCO)CCO)c(I)c(N(CCO)C(C)=O)c1I` [Compound 5, N-[N,N'-di-(β-hydroxyethyl)-3,5-diacetamido-2,4,6-triiodobenzoyl]-diethanolamine], for which the solubility in the data set “Solubility in water” (setting [5]) was greater than 500 mg/mL.
As to `CNC(=O)c1c(I)c(NC(C)=O)c(I)c(C(=O)N(C)C[C@H](O)[C@@H](O)[C@H](O)[C@H](O)CO)c1I` [Compound 6], in the data set with mice [1] (setting [7]), the “Intravenous LD50” value came to 10000 mgI/kg. Also, the “Intracerebral LD50” value in the data set with mice [2] (setting [8]) was greater than 1500 mgI/kg. For the same compound, in the data set “Solubility in water” (setting [5]), the solubility is greater than 500 mg/mL.
For `CC(=O)NCc1c(I)c(NC(C)=O)c(I)c(C(=O)N(C)C[C@H](O)[C@@H](O)[C@H](O)[C@H](O)CO)c1I` [Compound 7, N-(3-Acetamido-5-acetamidomethyl-2,4,6-triiodobenzoyl)-N-methylglucamine], in “Solubility in water” (setting [5]), the solubility was greater than 500 mg/mL.
Consider `CC(=O)N(C)c1c(I)c(C(=O)N[C@H]2C(O)O[C@H](CO)[C@@H](O)[C@@H]2O)c(I)c(N(CCO)C(C)=O)c1I` (stereo partly drawn) [Compound 10, N-[3-N-(β-hydroxyethyl)-acetamido-5-N-methylacetamido-2,4,6-triiodobenzoyl]-glucosamine], for which the “Intravenous LD50” value in the data set on mice [1] (setting [7]) worked out at 8250 mgI/kg. Moreover, the “Intracerebral LD50” value in the data set on mice [2] (300 mgI/ml, dose 0.05 ml/20 g mouse) is on record as greater than 750 mgI/kg; in the data set with mice [2] (setting [8]), greater than 1500 mgI/kg. Moreover, the solubility in “Solubility in water” (setting [5]) was greater than 500 mg/mL.
As to `CC(=O)N(CCO)c1c(I)c(C(=O)N[C@H]2C(O)O[C@H](CO)[C@@H](O)[C@@H]2O)c(I)c(N(CCO)C(C)=O)c1I` (stereo partly drawn) [Compound 12, N-[N,N'-di-(β-hydroxyethyl)-3,5-diacetamido-2,4,6-triiodobenzoyl]-glucosamine], in the data set with mice [1] (concentration administered 300 mgI/ml, dose 0.8 ml/20 g mouse), the “Intravenous LD50” value was greater than 12000 mgI/kg. For the same compound, the “Intracerebral LD50” value in the data set on mice [2] (setting [8]) is on record as greater than 1500 mgI/kg. Also, in “Solubility in water” (setting [5]), the solubility is greater than 500 mg/mL.
Consider `CC(=O)Nc1c(I)c(NC(C)=O)c(I)c(C(=O)N[C@H]2C(O)O[C@H](CO)[C@@H](O)[C@@H]2O)c1I` (stereo partly drawn) [Compound 14, N-(3,5-diacetamido-2,4,6-triiodobenzoyl)-glucosamine], for which, in the data set “Solubility in water” (setting [5]), the solubility was greater than 500 mg/mL.
On to `CC(=O)Nc1c(I)c(C(=O)N[C@@H](CO)[C@@H](O)[C@H](O)[C@H](O)CO)c(I)c(N(C)C(C)=O)c1I` [Compound 15, N-(N-methyl-3,5-diacetamido-2,4,6-triiodobenzoyl)-2-glucamine], for which, in the data set with mice [1] (concentration administered 300 mgI/ml, dose 1.0 ml/20 g mouse), the “Intravenous LD50” value is reported as greater than 15000 mgI/kg. Moreover, the “Intracerebral LD50” value with mice [2] (setting [8]) is recorded as greater than 1500 mgI/kg. Moreover, the solubility in the data set “Solubility in water” (setting [5]) is greater than 500 mg/mL.
As for `CNC(=O)c1c(I)c(NC(C)=O)c(I)c(C(=O)N[C@H]2C(O)O[C@H](CO)[C@@H](O)[C@@H]2O)c1I` (stereo partly drawn) [Compound 19, N-(3-acetamido-5-N-methylcarbamoyl-2,4,6-triiodobenzoyl)-D-glucosamine], the solubility in “Solubility in water” (28°, read-out: Solubility in water at 28°) is 14 mg/mL (≈ 18.1 mM).
For the compound `CC(=O)Nc1c(I)c(NC(C)=O)c(I)c(C(=O)N(C)C[C@H](O)[C@@H](O)[C@H](O)[C@H](O)CO)c1I` [Compound 25, N-(3,5-diacetamido-2,4,6-triiodobenzoyl)-N-methyl-glucamine], the solubility was 79 mg/mL (≈ 99.9 mM) in “Solubility in water” (setting [9]) and less than 200 mg/mL in “Solubility in water” (setting [5]).
As for `CN(C[C@H](O)[C@@H](O)[C@H](O)[C@H](O)CO)S(=O)(=O)CI` [Compound 28, N-(Iodomethane sulphonyl)-N-methylglucamine], in the data set “Solubility in water” (in words), the “Solubility in hot water” value is given as “Very soluble in hot water”. In addition, the solubility in the data set “Solubility in water” (cold water, read-out: Solubility in cold water) is roughly 100 mg/mL (≈ 250 mM).
For `O=S(=O)(CI)N(CCO)CCO` [Compound 29, N-(Iodomethanesulphonyl)-diethanolamine], in the data set “Solubility in water” (cold water, in words), the “Solubility in cold water” value is recorded as “sparingly soluble in cold”. In “Solubility in water” (in words), the “Solubility in hot water” value is “Soluble in hot water”.
For the compound `CC(=O)Nc1c(I)cc(I)c(C(=O)N(C)C[C@H](O)[C@@H](O)[C@H](O)[C@H](O)CO)c1I` [Compound 30, N-(3-acetamido-2,4,6-triiodobenzoyl)-N-methyl-glucamine], the solubility in the data set “Solubility in water” (setting [5]) was greater than 500 mg/mL.
The same measure, in the same setting: next, `CC(=O)N(C)c1c(I)cc(I)c(C(=O)N(C)C[C@H](O)[C@@H](O)[C@H](O)[C@H](O)CO)c1I` [Compound 31, N-(3-N-methylacetamido-2,4,6-triiodobenzoyl)-N-methylglucamine]: greater than 500 mg/mL; `CC(=O)N(C)c1c(I)cc(I)c(C(=O)N[C@H]2C(O)O[C@H](CO)[C@@H](O)[C@@H]2O)c1I` (stereo partly drawn) [Compound 32, N-(3-N-methylacetamido-2,4,6-triodobenzoyl)-D-glucosamine]: greater than 500 mg/mL.
For the compound `CC(=O)Nc1c(I)c(C(=O)N(CCO)CCO)c(I)c(N(C)C(C)=O)c1I` [Compound 34, N-(N-methyl-3,5-diacetamido-2,4,6-triiodobenzoyl)-N,N-di-(β-hydroxyethyl)-amine], the solubility is 213 mg/mL (≈ 298 mM) in the data set “Solubility in water” (setting [9]) and 200 to 500 mg/mL (≈ 280 to 699 mM) in the data set “Solubility in water” (setting [5]).
Regarding `CC(=O)OCCN(C(C)=O)c1c(I)c(C(=O)N(C)C[C@H](O)[C@@H](O)[C@H](O)[C@H](O)CO)c(I)c(N(C)C(C)=O)c1I` [Compound 36, N-[3-N-methylacetamido-5-N-(β-acetoxyethyl)-acetamido-2,4,6-triiodobenzoyl]-N-methylglucamine], in “Solubility in water” (setting [5]), the solubility lay in the range of 200 to 500 mg/mL (≈ 224 to 561 mM).
With `CC(=O)N(C)c1c(I)c(C(=O)NCCO)c(I)c(N(CCO)C(C)=O)c1I` [Compound 37, N-[3-N-methylacetamido-5-N-(β-hydroxyethyl)-acetamido-2,4,6-triiodobenzoyl]-ethanolamine], the solubility in “Solubility in water” (setting [9]) is 4 mg/mL (≈ 5.59 mM); in “Solubility in water” (setting [5]), less than 200 mg/mL.
For `CC(=O)N(C)c1c(I)c(C(=O)N(C)CCO)c(I)c(N(CCO)C(C)=O)c1I` [Compound 38, N-[3-N-methylacetamido-5-N-(β-hydroxyethyl)-acetamido-2,4,6-triiodobenzoyl]-N-methylethanolamine], in that order: 255 mg/mL (≈ 350 mM) and 200 to 500 mg/mL (≈ 274 to 686 mM).
As for `CC(=O)N(C)c1c(I)c(C(=O)N(CCO)CCO)c(I)c(N(CCO)C(C)=O)c1I` [Compound 39, N-[3-N-methylacetamido-5-N-(β-hydroxyethyl)-acetamido-2,4,6-triiodobenzoyl]-diethanolamine], the solubility in the data set “Solubility in water” (setting [5]) is greater than 500 mg/mL.
As to `CC(=O)N(C)c1c(I)c(C(=O)NCC(O)CO)c(I)c(N(CCO)C(C)=O)c1I` (stereo not drawn) [Compound 40, N-[3-N-methylacetamido-5-N-(β-hydroxyethyl)-acetamido-2,4,6-triiodobenzoyl]-N-(2,3-dihydroxypropyl)-amine], the figures for the solubility in “Solubility in water” (setting [9]) and in “Solubility in water” (setting [5]) were 2.6 mg/mL (≈ 3.49 mM) and less than 200 mg/mL, respectively.
In the case of `CC(=O)N(C)c1c(I)c(C(=O)NC(CO)(CO)CO)c(I)c(N(CCO)C(C)=O)c1I` [Compound 41, N-[3-N-methylacetamido-5-N-(β-hydroxyethyl)-acetamido-2,4,6-triiodobenzoyl]-N-[tris-(hydroxymethyl)-methyl]-amine], the solubility in “Solubility in water” (setting [9]) was 8.6 mg/mL (≈ 11.1 mM); in the data set “Solubility in water” (setting [5]) it was less than 200 mg/mL.
`CC(=O)N(CCO)c1c(I)c(C(=O)N(C)C[C@H](O)[C@@H](O)[C@H](O)[C@H](O)CO)c(I)c(N(CCO)C(C)=O)c1I` [Compound 43, N-[3,5-bis-N-(β -hydroxyethyl)-acetamido-2,4,6-triiodobenzoyl]-N-methylglucamine]: the “Intravenous LD50” value in the data set on mice [1] (setting [7]) was found to be 7500 mgI/kg. The “Intracerebral LD50” value is given as greater than 1000 mgI/kg in the data set with mice [2] (setting [6]) and greater than 2000 mgI/kg in the data set on mice [2] (400 mgI/ml, dose 0.10 ml/20 g mouse). Moreover, the solubility in the data set “Solubility in water” (setting [5]) is greater than 500 mg/mL.
As to `CC(=O)N(CCO)c1c(I)c(C(=O)NCCO)c(I)c(N(CCO)C(C)=O)c1I` [Compound 45, N-[3,5-bis-N-(β-hydroxyethyl)-acetamido-2,4,6-triiodobenzoyl]-ethanolamine], the results for the solubility in “Solubility in water” (setting [9]) and in the data set “Solubility in water” (setting [5]) were 214 mg/mL (≈ 287 mM) and 200 to 500 mg/mL (≈ 268 to 671 mM), respectively.
With `CNC(=O)c1c(I)c(NC(C)=O)c(I)c(C(=O)N(CCO)C[C@H](O)[C@@H](O)[C@H](O)[C@H](O)CO)c1I` [Compound 49, N-(3-Acetamido-5-N-methylcarbamoyl-2,4,6-triiodobenzoyl)-N-(2-hydroxyethyl)-glucamine], the “Intravenous LD50” value in the data set on mice [1] (setting [7]) was determined as 15000 mgI/kg. Further, in the data set on mice [2] (setting [8]), the “Intracerebral LD50” value is greater than 1500 mgI/kg.
Take `O=S(=O)(O)CI` [Iodomethanesulphonic acid, reference compound]: the “Intracerebral LD50” value with mice [2] (setting [4]) is given as 195 mgI/kg.
Consider `CC(=O)Nc1c(I)c(C(=O)O)c(I)c(N(C)C(C)=O)c1I` [N-Methyl-3,5-diacetamido-2,4,6-triiodobenzoic acid, reference compound], for which the “Intravenous LD50” value with mice [1] (setting [3]) turned out to be 6000 mgI/kg. Besides, the “Intracerebral LD50” value with mice [2] (setting [4]) stood at 130 mgI/kg.

For the origin of these results see US4021481A, “Amido derivatives of 2,4,6-triiodobenzoic acids containing at least one N-hydroxyalkyl and at least two hydroxyl groups” (Nyegaard & Co. A/S, priority 1969, dated 1977).
